Assay results as given in ChEMBL document CHEMBL1201862, “PubChem BioAssay data set” (2004).
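In this assay, cells in 96-well plates receive the compound at five concentrations for 48 hours. Endpoints are linearly interpolated between the surrounding concentrations. GI50 = concentration required for 50% inhibition of growth.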 The source made the active and inactive calls. Cut-off read from the data, not from the text of the source: active = GI50 up to about 1.1 µM and inactive = higher.

Legend:
Assay in all cases: DTP human tumour cell line panel, 48 h
786-0 = system: 786-0
COLO 205 = system: COLO 205
DU-145 = system: DU-145
HOP-62 = system: HOP-62
IGROV-1 = system: IGROV-1
LOX IMVI = system: LOX IMVI
MDA-MB-231 = system: MDA-MB-231
MDA-MB-435 = system: MDA-MB-435
NCI-H23 = system: NCI-H23
NCI-H522 = system: NCI-H522
OVCAR-3 = system: OVCAR-3
OVCAR-5 = system: OVCAR-5
OVCAR-8 = system: OVCAR-8
RPMI-8226 = system: RPMI-8226
SF-539 = system: SF-539
SNB-75 = system: SNB-75
TK-10 = system: TK-10
UO-31 = system: UO-31
SF-295 = system: SF-295
NCI-H226 = system: NCI-H226

SMILES | GI50 (786-0) | GI50 (COLO 205) | GI50 (DU-145) | GI50 (HOP-62) | GI50 (IGROV-1) | GI50 (LOX IMVI) | GI50 (MDA-MB-231) | GI50 (MDA-MB-435) | GI50 (NCI-H23) | GI50 (NCI-H522) | GI50 (OVCAR-3) | GI50 (OVCAR-5) | GI50 (OVCAR-8) | GI50 (RPMI-8226) | GI50 (SF-539) | GI50 (SNB-75) | GI50 (TK-10) | GI50 (UO-31) | GI50 (SF-295) | GI50 (NCI-H226)
N[C@H](C(=O)O)[C@@H]1CC(Cl)=NO1 [ACIVICIN] | 13.8 µM (inactive) | 5.92 µM (inactive) | 2.48 µM (inactive) | 1.42 µM (inactive) | 0.698 µM (active) | 1.46 µM (inactive) | 72.6 µM (inactive) | 3.9 µM (inactive) | 4.07 µM (inactive) | 4.43 µM (inactive) | 2.17 µM (inactive) | 7.71 µM (inactive) | 2.18 µM (inactive) | 3.3 µM (inactive) | 3.56 µM (inactive) | 25.9 µM (inactive) | 2.7 µM (inactive) | 6.25 µM (inactive) | – | –
CSc1c(CC(=O)O)n(Cc2ccccc2)c2ccccc12 | > 100 µM (inactive) | > 100 µM (inactive) | > 100 µM (inactive) | > 100 µM (inactive) | > 100 µM (inactive) | > 100 µM (inactive) | > 100 µM (inactive) | > 100 µM (inactive) | > 100 µM (inactive) | 89.3 µM (inactive) | > 100 µM (inactive) | > 100 µM (inactive) | > 100 µM (inactive) | 71.1 µM (inactive) | > 100 µM (inactive) | > 100 µM (inactive) | > 100 µM (inactive) | > 100 µM (inactive) | 79.8 µM (inactive) | –
O=C(COc1ccc(OCC(=O)N2C(=O)CS/C2=N\c2ccccc2)cc1)N1C(=O)CS/C1=N\c1ccccc1 | 19.2 µM (inactive) | 20.5 µM (inactive) | 30.8 µM (inactive) | – | 2.38 µM (inactive) | – | 15.6 µM (inactive) | 23.7 µM (inactive) | 19.5 µM (inactive) | 11.1 µM (inactive) | – | 12.7 µM (inactive) | – | 22.5 µM (inactive) | – | 90.4 µM (inactive) | 56.9 µM (inactive) | 25.2 µM (inactive) | 33.3 µM (inactive) | 26.5 µM (inactive)
Cc1nc(-c2ccccc2)c(C)n2c1nc1ccccc12 | 29 µM (inactive) | 31.3 µM (inactive) | 29.9 µM (inactive) | 32.4 µM (inactive) | 30.4 µM (inactive) | 30.3 µM (inactive) | 31.9 µM (inactive) | 24.4 µM (inactive) | 15.4 µM (inactive) | – | 24.6 µM (inactive) | 33.2 µM (inactive) | 25.9 µM (inactive) | 14.2 µM (inactive) | 35.6 µM (inactive) | 26.7 µM (inactive) | 29.4 µM (inactive) | 14.7 µM (inactive) | 37.6 µM (inactive) | 40.5 µM (inactive)
COc1ccc(C/C=C(\C)CCO)cc1 | > 100 µM (inactive) | > 100 µM (inactive) | > 100 µM (inactive) | > 100 µM (inactive) | > 100 µM (inactive) | > 100 µM (inactive) | > 100 µM (inactive) | > 100 µM (inactive) | > 100 µM (inactive) | > 100 µM (inactive) | > 100 µM (inactive) | > 100 µM (inactive) | > 100 µM (inactive) | 19.7 µM (inactive) | > 100 µM (inactive) | > 100 µM (inactive) | > 100 µM (inactive) | > 100 µM (inactive) | > 100 µM (inactive) | –
COC(=O)C1=C(O)C(C(=O)OC)[C@]2(O)[C@H](C(=O)OC)[C@H]1C[C@@H](c1ccc(O)cc1)[C@H]2C(=O)OC (stereo partly specified) | 39 µM (inactive) | 31.2 µM (inactive) | 23.1 µM (inactive) | 18 µM (inactive) | 41.2 µM (inactive) | 29.2 µM (inactive) | 23.1 µM (inactive) | 18.7 µM (inactive) | 28.1 µM (inactive) | – | 11.5 µM (inactive) | 23.8 µM (inactive) | 33.4 µM (inactive) | 27.9 µM (inactive) | 30.3 µM (inactive) | 20 µM (inactive) | 25 µM (inactive) | 45 µM (inactive) | 22 µM (inactive) | 44.4 µM (inactive)
C#CC[C@@H]1C(=O)N(Cc2ccc(OC)cc2)[C@@H](C(C)C)C(=O)N1Cc1ccc(OC)cc1 | 44.9 µM (inactive) | 19.4 µM (inactive) | 29.5 µM (inactive) | > 100 µM (inactive) | > 100 µM (inactive) | 36.4 µM (inactive) | 83.2 µM (inactive) | 36.1 µM (inactive) | 33.2 µM (inactive) | 28 µM (inactive) | 51.4 µM (inactive) | 67.5 µM (inactive) | 46.1 µM (inactive) | – | 29.2 µM (inactive) | 24 µM (inactive) | 49.9 µM (inactive) | 33.7 µM (inactive) | 54.2 µM (inactive) | 35.2 µM (inactive)
O=C1c2c(ccc3c2CCCC3)CC12Cc1ccc3c(c1C2=O)CCCC3 | > 100 µM (inactive) | – | > 100 µM (inactive) | > 100 µM (inactive) | > 100 µM (inactive) | > 100 µM (inactive) | > 100 µM (inactive) | > 100 µM (inactive) | > 100 µM (inactive) | > 100 µM (inactive) | > 100 µM (inactive) | > 100 µM (inactive) | > 100 µM (inactive) | > 100 µM (inactive) | > 100 µM (inactive) | > 100 µM (inactive) | > 100 µM (inactive) | > 100 µM (inactive) | > 100 µM (inactive) | –
CNC1(C(=O)O)CC1 | > 100 µM (inactive) | – | > 100 µM (inactive) | > 100 µM (inactive) | > 100 µM (inactive) | > 100 µM (inactive) | > 100 µM (inactive) | > 100 µM (inactive) | > 100 µM (inactive) | > 100 µM (inactive) | > 100 µM (inactive) | > 100 µM (inactive) | > 100 µM (inactive) | > 100 µM (inactive) | > 100 µM (inactive) | – | > 100 µM (inactive) | – | > 100 µM (inactive) | > 100 µM (inactive)
Cc1cc2c3c([nH]c2c2ccnc(C)c12)CCCC3 | 1.68 µM (inactive) | 1.69 µM (inactive) | 3.23 µM (inactive) | 1.79 µM (inactive) | 2.23 µM (inactive) | 1.96 µM (inactive) | 1.69 µM (inactive) | 1.88 µM (inactive) | 2.86 µM (inactive) | – | 2.14 µM (inactive) | 3.65 µM (inactive) | 2.18 µM (inactive) | 1.84 µM (inactive) | 1.85 µM (inactive) | 1.87 µM (inactive) | 2.33 µM (inactive) | 2.05 µM (inactive) | 2.12 µM (inactive) | 12.1 µM (inactive)
CCCCN1C(=O)CC2[C@@H]3CCc4cc(OC(C)=O)ccc4C3CC[C@]2(C)C1=O (stereo partly specified) | > 10 µM (inactive) | > 10 µM (inactive) | > 10 µM (inactive) | > 10 µM (inactive) | > 10 µM (inactive) | > 10 µM (inactive) | > 10 µM (inactive) | > 10 µM (inactive) | > 10 µM (inactive) | – | > 10 µM (inactive) | > 10 µM (inactive) | > 10 µM (inactive) | > 10 µM (inactive) | > 10 µM (inactive) | – | > 10 µM (inactive) | > 10 µM (inactive) | > 10 µM (inactive) | > 10 µM (inactive)
C[n+]1c2ccccc2c(N=[N+]=[N-])c2ccccc21 | 4.53 µM (inactive) | 4.29 µM (inactive) | > 10 µM (inactive) | > 10 µM (inactive) | 7.03 µM (inactive) | 2.94 µM (inactive) | 8.63 µM (inactive) | 7.14 µM (inactive) | 4.22 µM (inactive) | 8.87 µM (inactive) | > 10 µM (inactive) | > 10 µM (inactive) | 6.46 µM (inactive) | 5.08 µM (inactive) | 4.83 µM (inactive) | – | 6.97 µM (inactive) | – | > 10 µM (inactive) | 6.27 µM (inactive)
O=C1OC2C(O)C(=O)OC2C1O (stereo unspecified) | > 100 µM (inactive) | > 100 µM (inactive) | > 100 µM (inactive) | > 100 µM (inactive) | > 100 µM (inactive) | > 100 µM (inactive) | > 100 µM (inactive) | > 100 µM (inactive) | > 100 µM (inactive) | > 100 µM (inactive) | > 100 µM (inactive) | > 100 µM (inactive) | > 100 µM (inactive) | – | > 100 µM (inactive) | 95.3 µM (inactive) | – | > 100 µM (inactive) | > 100 µM (inactive) | > 100 µM (inactive)
NS(=O)(=O)c1ccc(Nc2c3ccccc3nc3c(C(=O)NCCCN(CCO)CCO)cccc23)cc1 | 19.3 µM (inactive) | 13 µM (inactive) | 29.9 µM (inactive) | 24.8 µM (inactive) | 19.4 µM (inactive) | 18.8 µM (inactive) | 61.1 µM (inactive) | 19.6 µM (inactive) | 23.4 µM (inactive) | 18.2 µM (inactive) | 24.3 µM (inactive) | 24.1 µM (inactive) | 28.6 µM (inactive) | 22.3 µM (inactive) | – | – | 36.6 µM (inactive) | > 100 µM (inactive) | 36.2 µM (inactive) | –
Cc1ccc(S(=O)(=O)NC(=O)Nc2nnc(S(N)(=O)=O)s2)cc1 | > 100 µM (inactive) | > 100 µM (inactive) | > 100 µM (inactive) | > 100 µM (inactive) | – | > 100 µM (inactive) | > 100 µM (inactive) | > 100 µM (inactive) | > 100 µM (inactive) | – | > 100 µM (inactive) | > 100 µM (inactive) | > 100 µM (inactive) | > 100 µM (inactive) | > 100 µM (inactive) | > 100 µM (inactive) | > 100 µM (inactive) | > 100 µM (inactive) | > 100 µM (inactive) | > 100 µM (inactive)
